Laboratory results from ChEMBL document CHEMBL5620422, “Design, synthesis, and biological evaluation of a series of new anthraquinone derivatives as anti-ZIKV agents” (Eur J Med Chem, 2023).
The source made the active and inactive calls. The calls are words filed in the database; no cut-off is given here.

Tests used:
[1] = Cytotoxicity against human A549 cells assessed as reduction in cell viability incubated for 48 hrs by MTT assay; type: toxicity, cell-based
Zika virus = test: Antiviral activity against ZIKV ZG-01 infected in A549 cells preincubated for 1 hr followed by replacement with fresh media containing compound for 48 hrs by crystal violet staining based plaque assay; type: functional, organism-based; settings: ZG-01, A549
NS5 (Zika virus) = NS5 (Zika virus) (UniProt A0A143MHK7); test: Binding affinity to ZIKV RdRP by SPR assay
[2] = tested on: Porcine reproductive and respiratory syndrome virus; test: Antiviral activity against Porcine reproductive and respiratory syndrome virus infected in MARC145 cells assessed as reduction in viral replication by microscopic analysis; type: functional, organism-based

Compound | CC50 at 48 h [1] [µM] | EC50 (Zika virus) [µM] | Activity (NS5 (Zika virus)) | EC50 [2] [µM]
C[C@]1(O)CC2=C(C[C@@]1(C)O)C(=O)c1c(O)cc(NCCc3ccccc3)c(O)c1C2=O | > 50 | 4.2 | – | –
C[C@]1(O)CC2=C(C[C@@]1(C)O)C(=O)c1c(O)cc(N3CCCC3)c(O)c1C2=O | > 50 | 25.6 | – | –
C[C@]1(O)CC2=C(C[C@@]1(C)O)C(=O)c1c(O)cc(NCc3ccccc3)c(O)c1C2=O | > 50 | 10.3 | – | –
C[C@]1(O)CC2=C(C[C@@]1(C)O)C(=O)c1c(O)cc(NC3CCCC3)c(O)c1C2=O | > 50 | 17.1 | – | –
C[C@]1(O)CC2=C(C[C@@]1(C)O)C(=O)c1c(O)cc(NCCN3CCCC3)c(O)c1C2=O | > 50 | 8.4 | – | –
C[C@]1(O)CC2=C(C[C@@]1(C)O)C(=O)c1c(O)cc(NCCc3cccs3)c(O)c1C2=O | > 50 | 7.8 | – | –
C[C@]1(O)CC2=C(C[C@@]1(C)O)C(=O)c1c(O)cc(NCCc3ccco3)c(O)c1C2=O | > 50 | 8.1 | – | –
C[C@]1(O)CC2=C(C[C@@]1(C)O)C(=O)c1c(O)cc(NCCO)c(O)c1C2=O | > 50 | 48.4 | – | –
CCCNc1cc(O)c2c(c1O)C(=O)C1=C(C[C@@](C)(O)[C@@](C)(O)C1)C2=O | > 50 | 42.6 | – | –
C[C@]1(O)CC2=C(C[C@@]1(C)O)C(=O)c1c(O)cc(NCc3cccs3)c(O)c1C2=O | > 50 | 12.2 | – | –
C[C@]1(O)CC2=C(C[C@@]1(C)O)C(=O)c1c(O)cc(NC3CCC3)c(O)c1C2=O | > 50 | 38.4 | – | –
NC(=O)c1ncn([C@@H]2O[C@H](CO)[C@@H](O)[C@H]2O)n1 | – | – | inactive | –
C[C@]1(O)CC2=C(C[C@@]1(C)O)C(=O)c1c(O)cc(N3CCOCC3)c(O)c1C2=O | > 50 | 15.4 | – | –
C[C@]1(O)CC2=C(C[C@@]1(C)O)C(=O)c1c(O)cc(NCC3CCCO3)c(O)c1C2=O (some centres undefined) | > 50 | 36.1 | – | –
CCC(C)Nc1cc(O)c2c(c1O)C(=O)C1=C(C[C@@](C)(O)[C@@](C)(O)C1)C2=O (some centres undefined) | > 50 | > 50 | – | –
COc1cc(O)c2c(c1)[C@@H](O)[C@H]1C[C@](C)(O)[C@H](O)C[C@@H]1C2=O [TETRAHYDROALTERSOLANOL C] | – | – | – | 12.1
C[C@]1(O)CC2=C(C[C@@]1(C)O)C(=O)c1c(O)cc(NC3CC3)c(O)c1C2=O | > 50 | 48.1 | – | –
C[C@]1(O)CC2=C(C[C@@]1(C)O)C(=O)c1c(O)cc(NCc3ccco3)c(O)c1C2=O | > 50 | 16.5 | – | –
C[C@]1(O)CC2=C(C[C@@]1(C)O)C(=O)c1c(O)cc(NC3CCCCC3)c(O)c1C2=O | > 50 | 15.5 | – | –
C[C@]1(O)CC2=C(C[C@@]1(C)O)C(=O)c1c(O)cc(NCCC3=CCCCC3)c(O)c1C2=O | > 50 | 5.7 | – | –
C[C@]1(O)CC2=C(C[C@@]1(C)O)C(=O)c1c(O)cc(NCCN3CCOCC3)c(O)c1C2=O | > 50 | 24.5 | – | –
C[C@]1(O)CC2=C(C[C@@]1(C)O)C(=O)c1c(O)cc(NCCN3CCCCC3)c(O)c1C2=O | > 50 | 8.7 | – | –
CCNc1cc(O)c2c(c1O)C(=O)C1=C(C[C@@](C)(O)[C@@](C)(O)C1)C2=O | > 50 | 44.2 | – | –
